{"source": "paper PMC11574045", "about": "“A cofactor-induced repressive type of transcription factor condensation can be induced by synthetic peptides to suppress tumorigenesis” (The EMBO Journal, 2024)", "key": {"AGS cells": {"system": "AGS cells", "format": "cell-based, human", "settings": "48 h", "experimental": "(§1) For cell viability assays, cells were seeded into 96-well plates overnight to attach them to the plates, and then treated with GLUP for 48 h. Cells incubated for indicated periods of time were analyzed using an ATP-based CellTiter-Lumi^TM Plus kit (Beyotime) according to the manufacturer’s instructions. The intracellular ATP contents were measured using a BioTek Synergy^TM NEO multi-detector microplate reader (Thermo). Cell viability was calculated using the equation cell viability (%) = [[value (test) − value (blank)] × [value (control) − value (blank)]] −1 × 100."}, "AZ-521 cells": {"system": "AZ-521 cells", "format": "cell-based, human", "settings": "48 h", "experimental": "as §1"}, "BGC-823 cells": {"system": "BGC-823 cells", "format": "cell-based, human", "settings": "48 h", "experimental": "as §1"}, "GES-1 cells": {"system": "GES-1 cells", "format": "cell-based, human", "settings": "48 h", "experimental": "as §1"}, "HGC-27 cells [1]": {"system": "HGC-27 cells", "format": "cell-based, human", "experimental": "as §1"}, "MGC-803 cells": {"system": "MGC-803 cells", "format": "cell-based, human", "settings": "48 h", "experimental": "as §1"}, "MKN-28 cells": {"system": "MKN-28 cells", "format": "cell-based, human", "settings": "48 h", "experimental": "as §1"}, "MKN-45 cells": {"system": "MKN-45 cells", "format": "cell-based, human", "settings": "48 h", "experimental": "as §1"}, "SH-10-TC cells": {"system": "SH-10-TC cells", "format": "cell-based, human", "settings": "48 h", "experimental": "as §1"}, "SNU-216 cells": {"system": "SNU-216 cells", "format": "cell-based, human", "settings": "48 h", "experimental": "as §1"}, "HGC-27 cells [2]": {"system": "HGC-27 cells", "assay": "Colony formation", "format": "cell-based, human", "settings": "colony formation: GLUP 2 μg/ml (1 μM) every 2 days for 2 weeks", "experimental": "(A) Cell viability levels of HGC-27 cells treated with indicated concentrations (0, 5, 10, 20, 40 μg/ml) of GLUP for 48 h (three biological replicates, n = 3). Data shown as means ± SD represent the representative results from two independent experiments. (B) Colony formation of HGC-27 cells treated with GLUP every 2 days for a 2-week duration (three biological replicates, n = 3). GLUP, 2 μg/ml (1 μM). (C) Cell viability levels of the indicated cells (from 10 different lines) treated with GLUP. […] IC50 values for the treatments of these cells with GLUP (lower). […] The box plots showing the minima, maxima, center, bounds of box and whiskers and percentiles (upper quartile, median and lower quartile). Data shown as means ± SD represent the representative results from two independent experiments. Significance was tested using the unpaired t test, ***p < 0.001. (D) Cell viability of TEAD4-overexpressing AGS cells treated with GLUP for 48 h (three biological replicates, n = 3). Data shown as means ± SD represent the representative results from two independent experiments. (E) Cell viability levels of four lines of patient-derived cells (PDCs) treated with GLUP. […] The quantification graph represents the data collected from 14 cells (n = 14). […] Tumor areas were measured (right, n = 8/group) and indicated in red circles. […]"}, "Pharmacokinetics assay": {"assay": "Pharmacokinetics assay", "format": "in vivo, mouse", "settings": "10 mg/kg", "experimental": "Blood samples were obtained at 0, 0.17, 0.33, 0.5, 0.67, 0.83, 1, 2, 4, 6, 8, 10, 12, and 24 h after intraperitoneally injected administration of FAM-GLUP. These blood samples were then allowed to coagulate at room temperature for 4 h, and then were subjected to centrifugation at 3000 × g at 4 °C for 10 min in order to separate the plasma. The plasma samples were analyzed using an Ultra Performance Liquid Chromatography system (UPLC, Waters, Milford, MA). Pharmacokinetic parameters were calculated using Phoenix^TM WinNonlin® software (version 6.1.0.173; Pharsight Corp., Mountain View, CA)."}, "[3]": {"assay": "Toxicity analysis (blood testing, blood biochemistry, pathology)", "format": "in vivo, mouse", "settings": "BALB/c mice, GLUP 1 or 10 mg/kg i.p. every 2 days, 14 days", "experimental": "Healthy BALB/c mice (~8 weeks, n = 5) were injected intraperitoneally with GLUP (1, 10 mg/kg, respectively, every 2 days), and mice of the control group were injected with saline (10 ml/kg, n = 5). The mice were continuously observed for 14 days after the administration and then sacrificed for routine blood testing (of white blood cells, red blood cells, platelets, lymphocytes, monocytes, and neutrophils), examination of the blood biochemistry (hemoglobin, albumin, glucose, creatinine, urea, AST, and ALT) and pathology examination."}, "chromatin": {"system": "chromatin", "assay": "N-SIM imaging of DAPI-labeled chromatin in cells", "format": "cell-based", "settings": "GLUP 1 μg/ml (0.5 μM)", "excerpt": "Next, we used structure illumination microscopy (N-SIM) to examine deformation of DAPI-labeled chromatin in cells overexpressing VGLL4. […] To further address this issue, we performed colloidal gold staining using TEAD4 antibody to observe the status of chromatin around TEAD4.\nTo confirm cellular entry of GLUP, we performed immunostaining of live cells treated with a fluorescein-labeled version of the peptide (FAM-GLUP). […] We then examined the potential effect of GLUP on TEAD4-mediated perturbation of DNA conformation."}}, "note": "Ends that are not written are not given here."}
{"substance": "RRVCVHFHFSLSLR-NH2 (C-terminus assumed) [glup]", "values": [{"measurement": "IC50", "setting": "AGS cells", "value": 34, "unit": "µg/mL"}, {"measurement": "IC50", "setting": "AZ-521 cells", "value": 8.1, "unit": "µg/mL"}, {"measurement": "IC50", "setting": "BGC-823 cells", "value": 26.1, "unit": "µg/mL"}, {"measurement": "IC50", "setting": "GES-1 cells", "value": 13.1, "unit": "µg/mL"}, {"measurement": "Cell death", "setting": "HGC-27 cells [1]; HGC-27, 0.1 µg/ml GLUP, 48 h (peer review file, Figure R22C)", "value": "~60", "unit": "%"}, {"measurement": "Suppression of cell growth with or without YAP (5SA) overexpression", "setting": "HGC-27 cells [1]; HGC-27, 0.1/1 µg/ml GLUP (peer review file, Figure R23)", "value": "regardless of YAP (5SA) expression"}, {"measurement": "IC50", "setting": "MGC-803 cells", "value": 2.5, "unit": "µg/mL"}, {"measurement": "IC50", "setting": "MKN-28 cells", "value": 6.7, "unit": "µg/mL"}, {"measurement": "IC50", "setting": "MKN-45 cells", "value": 7.3, "unit": "µg/mL"}, {"measurement": "IC50", "setting": "SH-10-TC cells", "value": 26.3, "unit": "µg/mL"}, {"measurement": "IC50", "setting": "SNU-216 cells", "value": 23.4, "unit": "µg/mL"}, {"measurement": "Viability and colony formation", "setting": "HGC-27 cells [2]", "value": "obvious reduction in both the viability and colony formation"}, {"measurement": "half-life", "setting": "Pharmacokinetics assay; mouse peripheral blood/plasma, FAM-GLUP intraperitoneal, sampling 0–24 h, UPLC, WinNonlin", "value": "over 4 h"}, {"measurement": "plasma levels of GLUP, max", "setting": "Pharmacokinetics assay; mouse, as read by Referee #1 from Supp. Fig. 6K of the submitted version", "value": "around 0.15 µg/ml"}, {"measurement": "Blood findings upon GLUP treatment", "setting": "[3]", "value": "a range of blood biochemical abnormalities e.g., in numbers of platelets and neutrophils"}, {"measurement": "Effect on chromatin distribution", "setting": "chromatin", "value": "substantially disturbed chromatin distribution and organization"}]}
